Assay results taken from US8293916B2, “Diazole derivatives” (Hoffmann-La Roche Inc., priority 2004, dated 2012).
Like-named read-outs stand apart in the source and are kept apart here.

Biological target: T1, human mGlu 5a receptor (Homo sapiens, UniProt P41594)
T1 construct: expressed in transfected cells; host or cells: EBNA cells (transient transfection); cell membrane homogenates
Assay: [3H]MPEP competition binding on membranes of EBNA cells transiently transfected with human mGlu 5a receptor
Description: Cell membrane homogenates were stored at −80° C. until the day of assay where upon they were thawed and resuspended and polytronised in 15 mM Tris-HCl, 120 mM NaCl, 100 mM KCl, 25 mM CaCl2, 25 mM MgCl2 binding buffer at pH 7.4 to a final assay concentration of 20 μg protein/well.
Competition experiments were performed with a fixed concentration of [^3H]MPEP (2 nM) and IC50 values of test compounds evaluated using 11 concentrations (0.3-10,000 nM).
Nonspecific binding was measured in the presence of 10 μM MPEP. The radioactivity on the filter was counted (3 min) on a Packard Top-count microplate scintillation counter with quenching correction after addition of 45 μl of microscint 40 (Canberra Packard S.A., Zürich, Switzerland) and shaking for 20 min.
The Ki value is defined by the following formula: Ki=IC50/[1+L/Kd] in which the IC50 values are those concentrations of the compounds tested which cause 50% inhibition of the competing radioligand ([^3H]MPEP). L is the concentration of radioligand used in the binding experiment and the Kd value of the radioligand is empirically determined for each batch of membranes prepared.

[1] = competition with [3H]MPEP (2 nM), 1 h at 4° C., pH 7.4, Ki=IC50/[1+L/Kd]

T1 sequence (P41594 21-1180 isoform P41594-2 limits assumed): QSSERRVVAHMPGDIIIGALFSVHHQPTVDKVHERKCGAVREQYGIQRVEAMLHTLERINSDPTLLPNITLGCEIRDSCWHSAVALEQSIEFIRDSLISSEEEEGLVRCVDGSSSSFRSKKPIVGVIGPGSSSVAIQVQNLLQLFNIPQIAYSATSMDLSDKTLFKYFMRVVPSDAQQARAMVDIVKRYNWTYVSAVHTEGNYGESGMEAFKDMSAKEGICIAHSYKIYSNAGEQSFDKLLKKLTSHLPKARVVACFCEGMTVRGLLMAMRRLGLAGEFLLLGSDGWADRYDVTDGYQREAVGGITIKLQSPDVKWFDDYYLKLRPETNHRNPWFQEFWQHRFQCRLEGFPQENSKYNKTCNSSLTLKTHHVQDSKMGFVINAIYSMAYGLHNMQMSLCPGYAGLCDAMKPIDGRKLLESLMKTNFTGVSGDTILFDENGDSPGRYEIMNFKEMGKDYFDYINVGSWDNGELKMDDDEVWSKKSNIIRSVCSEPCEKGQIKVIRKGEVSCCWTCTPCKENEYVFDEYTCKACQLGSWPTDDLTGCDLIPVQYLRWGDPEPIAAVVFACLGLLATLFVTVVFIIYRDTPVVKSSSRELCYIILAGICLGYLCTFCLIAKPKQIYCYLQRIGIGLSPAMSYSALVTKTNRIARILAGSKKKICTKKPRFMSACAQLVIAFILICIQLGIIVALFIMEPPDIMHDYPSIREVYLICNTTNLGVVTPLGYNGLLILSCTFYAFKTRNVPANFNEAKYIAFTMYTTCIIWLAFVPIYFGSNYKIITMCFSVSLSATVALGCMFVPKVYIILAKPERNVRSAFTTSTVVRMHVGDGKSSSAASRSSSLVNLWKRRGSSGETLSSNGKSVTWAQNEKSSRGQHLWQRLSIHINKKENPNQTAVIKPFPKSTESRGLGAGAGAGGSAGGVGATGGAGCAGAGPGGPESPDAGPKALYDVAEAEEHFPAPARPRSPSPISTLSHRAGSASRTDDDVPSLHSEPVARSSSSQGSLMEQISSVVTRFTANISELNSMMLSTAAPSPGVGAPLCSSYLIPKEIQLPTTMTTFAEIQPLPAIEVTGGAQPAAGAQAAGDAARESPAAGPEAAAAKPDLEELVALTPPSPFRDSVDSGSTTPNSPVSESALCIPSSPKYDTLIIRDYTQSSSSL

Ki [nM]	Ki [1] [nM]	SMILES
14		Cc1nc(C#Cc2ccnc(Cl)c2)c(C)n1-c1ccc(C(F)(F)F)cc1 [Example 13, 2-Chloro-4-[2,5-dimethyl-1-(4-trifluoromethyl-phenyl)-1H-imidazol-4-ylethynyl]-pyridine]
	6	Cc1c(C#Cc2ccnc(Cl)c2)nn(C)c1-c1ccc(F)cc1 [Example 26, 2-Chloro-4-[5-(4-fluoro-phenyl)-1,4-dimethyl-1H-pyrazol-3-ylethynyl]-pyridine]
	42	Cc1nc(C#Cc2ccnc(Cl)c2)c(C(F)F)n1-c1ccc(F)cc1 [Example 27, 2-Chloro-4-[5-difluoromethyl-1-(4-fluoro-phenyl)-2-methyl-1H-imidazol-4-ylethynyl]-pyridine]
